Results on eleven molecules are retold here after ChEMBL document CHEMBL1125606, “Synthesis and binding of [125I2]philanthotoxin-343, [125I2]philanthotoxin-343-lysine, and [125I2]philanthotoxin-343-arginine to rat brain membranes” (J Med Chem, 1991).

This experiment is filed under the species Rattus norvegicus. In words: Percent control measured by evaluating the inhibition of 3 nM [125I]PhTX-343-lysine binding to glutamate receptors in rat cortical membranes. It counts as cell membranes. More on the design: scale not given: the % may be the effect or the level left. As to conditions: Membrane.
With `N[C@@H](Cn1oc(=O)[nH]c1=O)C(=O)O`, the Activity is 104%.

`c1ccc(C2(N3CCCCC3)CCCCC2)cc1`: the Activity was determined as 81%.

In turn, `CNC(CCC(=O)O)C(=O)O` (stereo unspecified) displayed an Activity of 96%.

Consider `NCC(=O)O`, for which the Activity was 109%.

In the case of `N[C@@H](CCC(=O)O)C(=O)O`, the Activity was 99%.

For the molecule `O=[N+]([O-])c1cc2nc(O)c(O)nc2cc1[N+](=O)[O-]`, the Activity was found to be 102%.

`NCCCNCCCCNCCCN` had an Activity of 14.4%.

Regarding `NC(CCCP(=O)(O)O)C(=O)O` (stereo unspecified), the Activity is 94%.

Molecule `C=C(C)[C@H]1CN[C@H](C(=O)O)[C@H]1CC(=O)O` registered an Activity of 103%.

On to `C[C@]12N[C@H](Cc3ccccc31)c1ccccc12`, for which the Activity came out at 92%.

In turn, `CCCC(=O)N[C@@H](Cc1ccc(O)cc1)C(=O)NCCCCNCCCNCCCN` returned an Activity of 32.7%.
